Converted amounts (≈) assume the structure as drawn. One block for each compound: values may come before it.
Tests used:
[1] = test system: BaF3; experiment: Antiproliferative activity against wild type mouse BaF3 cells assessed as reduction in cell growth incubated for 2 to 3 days by Bright-Glo luciferase assay
[2] = AUC in mouse at 20 mg/kg, po; assay type: ADME, organism-based; set-up: dose 20 mg/kg; settings: in vivo
[3] = Solubility in DMSO at pH 6.8 by high-throughput solubility assay; assay type: physicochemical
[4] = Cmax in mouse at 20 mg/kg, po; assay type: ADME, organism-based; set-up: route oral, dose 20 mg/kg; settings: in vivo
[5] = Metabolic stability in human liver microsomes assessed as intrinsic clearance; assay type: ADME, Microsome; settings: read-out: CLH
[6] = Permeability of compound by PAMPA assay; assay type: ADME
[7] = Clearance in mouse at 5 mg/kg, iv; assay type: ADME, organism-based; settings: in vivo
[8] = Metabolic stability in rat liver microsomes assessed as intrinsic clearance; assay type: ADME, Microsome; settings: read-out: CLH
[9] = Volume of distribution at steady state in mouse at 5 mg/kg, iv; assay type: ADME, organism-based; settings: in vivo, read-out: Vdss
[10] = Metabolic stability in mouse liver microsomes assessed as intrinsic clearance; assay type: ADME, Microsome; settings: read-out: CLH
[11] = target: Cytochrome P450 3A4 (Homo sapiens, UniProt P08684); experiment: Inhibition of CYP3A4 (unknown origin) using midazolam as substrate; assay type: ADME
[12] = Oral bioavailability in mouse at 20 mg/kg; assay type: ADME, organism-based; settings: in vivo
[13] = AUC in rat at 10 mg/kg, po; assay type: ADME, organism-based; set-up: dose 10 mg/kg; settings: in vivo
[14] = Oral bioavailability in rat at 10 mg/kg; assay type: ADME, organism-based; settings: in vivo
[15] = Volume of distribution at steady state in rat at 3 mg/kg, iv; assay type: ADME, organism-based; settings: in vivo, read-out: Vdss
[16] = Clearance in rat at 3 mg/kg, iv; assay type: ADME, organism-based; settings: in vivo
[17] = target: Voltage-gated inwardly rectifying potassium channel KCNH2 (Homo sapiens, UniProt Q12809); experiment: Inhibition of human ERG by dofetilide binding assay
[18] = Cmax in rat at 10 mg/kg, po; assay type: ADME, organism-based; set-up: route oral, dose 10 mg/kg; settings: in vivo
[19] = target: Tyrosine-protein kinase JAK1 (Homo sapiens, UniProt P23458); experiment: Inhibition of JAK1 (unknown origin)
[20] = target: Receptor tyrosine-protein kinase erbB-2 (Homo sapiens, UniProt P04626); experiment: Inhibition of HER2 (unknown origin)
[21] = test system: KARPAS-299; experiment: Antitumor activity against human KARPAS-299 cells harboring NMP-ALK xenografted in SCID mouse assessed as tumor regression by measuring T/C ratio at 50 mg/kg administered for 9 days and measured on day 9 (reference value: 100 %); assay type: functional; settings: time 9 day
[22] = target: RAC-alpha serine/threonine-protein kinase (Homo sapiens, UniProt P31749); experiment: Inhibition of AKT (unknown origin)
[23] = target: Fibroblast growth factor receptor 3 (Homo sapiens, UniProt P22607); experiment: Inhibition of FGFR3 (unknown origin)
[24] = target: Ephrin type-A receptor 4 (Homo sapiens, UniProt P54764); experiment: Inhibition of EphA4 (unknown origin)
[25] = target: Insulin-like growth factor 1 receptor (Homo sapiens, UniProt P08069); experiment: Inhibition of IGF-1R (unknown origin)
[26] = target: Proto-oncogene tyrosine-protein kinase receptor Ret (Homo sapiens, UniProt P07949); experiment: Inhibition of RET (unknown origin)
[27] = target: Mitogen-activated protein kinase 1 (Homo sapiens, UniProt P28482); experiment: Inhibition of MAPK1 (unknown origin)
[28] = test system: KARPAS-299; experiment: Antitumor activity against human KARPAS-299 cells harboring NMP-ALK xenografted in SCID mouse assessed as tumor regression administered for 9 days and measured on day 9; assay type: functional; settings: time 9.0 day
[29] = target: Ephrin type-B receptor 4 (Homo sapiens, UniProt P54760); experiment: Inhibition of EphB4 (unknown origin)
[30] = target: Epidermal growth factor receptor (Homo sapiens, UniProt P00533); experiment: Inhibition of HER1 (unknown origin)
[31] = target: ALK tyrosine kinase receptor (Homo sapiens, UniProt Q9UM73); experiment: Inhibition of ALK (unknown origin)
[32] = target: Platelet-derived growth factor receptor alpha (Homo sapiens, UniProt P16234); experiment: Inhibition of PDGFRalpha (unknown origin)
[33] = target: Hepatocyte growth factor receptor (Homo sapiens, UniProt P08581); experiment: Inhibition of MET (unknown origin)
[34] = target: Vascular endothelial growth factor receptor 2 (Homo sapiens, UniProt P35968); experiment: Inhibition of KDR (unknown origin)
[35] = test system: KARPAS-299; experiment: Antitumor activity against human KARPAS-299 cells harboring NMP-ALK xenografted in SCID mouse assessed as tumor shrinkage by measuring T/C ratio at 25 mg/kg administered for 9 days and measured on day 9 (reference value: 100 %); assay type: functional; settings: time 9 day
[36] = target: Cyclin-dependent kinase 2 (Homo sapiens, UniProt P24941); experiment: Inhibition of CDK2 (unknown origin)
[37] = target: Tyrosine-protein kinase ABL1 (Homo sapiens, UniProt P00519); experiment: Inhibition of ABL (unknown origin)
[38] = Inhibition of Aurora (unknown origin); set-up: species or system Homo sapiens
[39] = target: EML4-ALK (Homo sapiens, UniProt Q9UM73); experiment: Inhibition EML4-ALK (unknown origin); assay type: protein assay
[40] = target: Non-receptor tyrosine-protein kinase TYK2 (Homo sapiens, UniProt P29597); experiment: Inhibition of TYK2 (unknown origin)
[41] = target: Tyrosine-protein kinase SYK (Homo sapiens, UniProt P43405); experiment: Inhibition of SYK (unknown origin)
[42] = Toxicity in SCID mouse xenografted with human KARPAS-299 cells harboring NMP-ALK assessed as reduction in body weight at 25 to 50 mg/kg administered for 9 days and measured on day 9; assay type: organism-based; settings: in vivo, 216 h, dose 25-50 mg/kg, time 9 day
[43] = target: NPM/ALK (Nucleophosmin/ALK tyrosine kinase receptor) (Homo sapiens, UniProt Q9UM73); experiment: Inhibition NMP-ALK (unknown origin); assay type: protein assay
[44] = target: Tyrosine-protein kinase JAK3 (Homo sapiens, UniProt P52333); experiment: Inhibition of JAK3 (unknown origin)
[45] = target: Tyrosine-protein kinase Lck (Homo sapiens, UniProt P06239); experiment: Inhibition of LCK (unknown origin)
[46] = target: Tyrosine-protein kinase BTK (Homo sapiens, UniProt Q06187); experiment: Inhibition of BTK (unknown origin)
[47] = target: Serine/threonine-protein kinase PLK1 (Homo sapiens, UniProt P53350); experiment: Inhibition of PLK1 (unknown origin)
[48] = target: Mast/stem cell growth factor receptor Kit (Homo sapiens, UniProt P10721); experiment: Inhibition of c-KIT (unknown origin)
[49] = target: Tyrosine-protein kinase JAK2 (Homo sapiens, UniProt O60674); experiment: Inhibition of JAK2 (unknown origin)
[50] = target: Fibroblast growth factor receptor 4 (Homo sapiens, UniProt P22455); experiment: Inhibition of FGFR4 (unknown origin)
[51] = target: Glycogen synthase kinase-3 beta (Homo sapiens, UniProt P49841); experiment: Inhibition of GSK3beta (unknown origin)

Chain of Voltage-gated inwardly rectifying potassium channel KCNH2 (Q12809 whole entry): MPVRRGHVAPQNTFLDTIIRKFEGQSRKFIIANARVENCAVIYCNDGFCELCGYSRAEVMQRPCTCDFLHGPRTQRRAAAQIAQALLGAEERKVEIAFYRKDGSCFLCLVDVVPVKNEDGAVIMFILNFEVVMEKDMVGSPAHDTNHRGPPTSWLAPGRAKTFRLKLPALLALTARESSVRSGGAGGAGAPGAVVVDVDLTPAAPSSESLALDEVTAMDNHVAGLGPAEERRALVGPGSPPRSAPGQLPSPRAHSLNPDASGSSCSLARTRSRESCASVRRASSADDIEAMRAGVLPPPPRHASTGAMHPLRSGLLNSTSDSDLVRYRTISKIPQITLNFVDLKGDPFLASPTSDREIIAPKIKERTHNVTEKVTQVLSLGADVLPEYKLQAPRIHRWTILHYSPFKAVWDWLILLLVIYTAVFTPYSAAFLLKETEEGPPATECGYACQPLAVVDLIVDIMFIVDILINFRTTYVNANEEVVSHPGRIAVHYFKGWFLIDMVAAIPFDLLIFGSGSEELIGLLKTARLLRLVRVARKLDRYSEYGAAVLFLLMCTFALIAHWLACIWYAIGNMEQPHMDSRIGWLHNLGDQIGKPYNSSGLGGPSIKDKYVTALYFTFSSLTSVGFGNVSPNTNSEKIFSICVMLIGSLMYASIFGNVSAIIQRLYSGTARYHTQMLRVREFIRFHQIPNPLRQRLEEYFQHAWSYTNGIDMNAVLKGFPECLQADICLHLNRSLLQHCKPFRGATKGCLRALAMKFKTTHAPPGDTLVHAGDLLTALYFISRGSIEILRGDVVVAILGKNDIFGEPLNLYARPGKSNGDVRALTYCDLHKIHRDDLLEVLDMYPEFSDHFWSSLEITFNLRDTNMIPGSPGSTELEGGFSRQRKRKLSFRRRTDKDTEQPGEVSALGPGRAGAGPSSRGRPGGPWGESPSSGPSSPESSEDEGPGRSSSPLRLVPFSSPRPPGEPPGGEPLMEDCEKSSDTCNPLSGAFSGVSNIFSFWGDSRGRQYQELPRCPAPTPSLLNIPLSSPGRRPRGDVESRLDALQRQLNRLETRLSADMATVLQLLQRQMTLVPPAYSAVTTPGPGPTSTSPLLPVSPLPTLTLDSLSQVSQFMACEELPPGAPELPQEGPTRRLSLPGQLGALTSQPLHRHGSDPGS
Chain of Cytochrome P450 3A4 (P08684 whole entry): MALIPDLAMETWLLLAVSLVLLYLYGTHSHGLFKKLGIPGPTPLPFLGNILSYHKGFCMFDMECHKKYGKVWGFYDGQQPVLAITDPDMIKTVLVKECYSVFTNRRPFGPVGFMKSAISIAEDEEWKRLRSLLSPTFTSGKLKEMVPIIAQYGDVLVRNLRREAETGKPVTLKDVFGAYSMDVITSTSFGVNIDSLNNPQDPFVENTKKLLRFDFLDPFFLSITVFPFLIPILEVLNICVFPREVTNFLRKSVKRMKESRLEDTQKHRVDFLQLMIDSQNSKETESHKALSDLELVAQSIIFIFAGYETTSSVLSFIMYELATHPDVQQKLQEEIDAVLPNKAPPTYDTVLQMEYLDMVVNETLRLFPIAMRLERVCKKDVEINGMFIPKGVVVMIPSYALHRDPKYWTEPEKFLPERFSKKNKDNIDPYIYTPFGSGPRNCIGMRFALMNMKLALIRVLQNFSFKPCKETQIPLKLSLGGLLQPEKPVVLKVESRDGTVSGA
Chain of ALK tyrosine kinase receptor (Q9UM73 whole entry): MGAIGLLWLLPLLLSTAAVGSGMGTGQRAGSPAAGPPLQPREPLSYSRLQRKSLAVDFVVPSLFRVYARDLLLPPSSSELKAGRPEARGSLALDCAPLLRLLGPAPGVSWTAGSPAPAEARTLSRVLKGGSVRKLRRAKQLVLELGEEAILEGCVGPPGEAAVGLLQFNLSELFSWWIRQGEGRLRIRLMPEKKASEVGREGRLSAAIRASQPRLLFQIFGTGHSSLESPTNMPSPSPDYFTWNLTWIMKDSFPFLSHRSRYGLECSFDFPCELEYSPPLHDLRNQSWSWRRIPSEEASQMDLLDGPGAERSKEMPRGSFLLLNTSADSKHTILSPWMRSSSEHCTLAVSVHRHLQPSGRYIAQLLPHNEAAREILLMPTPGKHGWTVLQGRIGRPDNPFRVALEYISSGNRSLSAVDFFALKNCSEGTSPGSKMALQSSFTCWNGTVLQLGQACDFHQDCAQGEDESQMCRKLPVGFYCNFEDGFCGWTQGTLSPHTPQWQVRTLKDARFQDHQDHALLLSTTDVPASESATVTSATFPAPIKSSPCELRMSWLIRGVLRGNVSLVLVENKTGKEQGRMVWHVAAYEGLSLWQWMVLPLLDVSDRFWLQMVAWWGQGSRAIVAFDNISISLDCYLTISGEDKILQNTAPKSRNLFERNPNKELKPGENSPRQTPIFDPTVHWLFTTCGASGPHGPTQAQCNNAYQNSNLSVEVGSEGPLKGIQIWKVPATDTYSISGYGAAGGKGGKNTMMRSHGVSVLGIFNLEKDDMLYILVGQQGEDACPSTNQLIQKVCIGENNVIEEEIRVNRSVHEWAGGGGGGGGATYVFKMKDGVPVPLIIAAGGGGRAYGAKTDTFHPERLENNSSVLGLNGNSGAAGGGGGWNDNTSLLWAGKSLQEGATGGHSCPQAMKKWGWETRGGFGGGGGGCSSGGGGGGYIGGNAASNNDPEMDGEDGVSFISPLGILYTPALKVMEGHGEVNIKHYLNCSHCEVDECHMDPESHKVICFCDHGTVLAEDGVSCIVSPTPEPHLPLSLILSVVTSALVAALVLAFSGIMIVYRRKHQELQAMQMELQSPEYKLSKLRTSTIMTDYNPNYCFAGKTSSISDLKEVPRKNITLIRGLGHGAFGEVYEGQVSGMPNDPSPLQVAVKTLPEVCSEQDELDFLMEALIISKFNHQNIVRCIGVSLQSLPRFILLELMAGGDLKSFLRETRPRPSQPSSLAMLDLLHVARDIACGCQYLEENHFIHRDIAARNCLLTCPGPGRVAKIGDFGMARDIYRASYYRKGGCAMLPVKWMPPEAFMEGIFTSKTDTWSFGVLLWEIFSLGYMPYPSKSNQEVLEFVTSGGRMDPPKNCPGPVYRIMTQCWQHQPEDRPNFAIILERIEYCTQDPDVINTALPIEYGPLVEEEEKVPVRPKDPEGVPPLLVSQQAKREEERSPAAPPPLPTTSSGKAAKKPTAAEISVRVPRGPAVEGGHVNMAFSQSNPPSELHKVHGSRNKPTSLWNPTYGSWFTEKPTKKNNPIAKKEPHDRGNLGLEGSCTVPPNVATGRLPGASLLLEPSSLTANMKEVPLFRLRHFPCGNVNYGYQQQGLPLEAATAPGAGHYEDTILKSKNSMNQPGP
Chain of Vascular endothelial growth factor receptor 2 (P35968 whole entry): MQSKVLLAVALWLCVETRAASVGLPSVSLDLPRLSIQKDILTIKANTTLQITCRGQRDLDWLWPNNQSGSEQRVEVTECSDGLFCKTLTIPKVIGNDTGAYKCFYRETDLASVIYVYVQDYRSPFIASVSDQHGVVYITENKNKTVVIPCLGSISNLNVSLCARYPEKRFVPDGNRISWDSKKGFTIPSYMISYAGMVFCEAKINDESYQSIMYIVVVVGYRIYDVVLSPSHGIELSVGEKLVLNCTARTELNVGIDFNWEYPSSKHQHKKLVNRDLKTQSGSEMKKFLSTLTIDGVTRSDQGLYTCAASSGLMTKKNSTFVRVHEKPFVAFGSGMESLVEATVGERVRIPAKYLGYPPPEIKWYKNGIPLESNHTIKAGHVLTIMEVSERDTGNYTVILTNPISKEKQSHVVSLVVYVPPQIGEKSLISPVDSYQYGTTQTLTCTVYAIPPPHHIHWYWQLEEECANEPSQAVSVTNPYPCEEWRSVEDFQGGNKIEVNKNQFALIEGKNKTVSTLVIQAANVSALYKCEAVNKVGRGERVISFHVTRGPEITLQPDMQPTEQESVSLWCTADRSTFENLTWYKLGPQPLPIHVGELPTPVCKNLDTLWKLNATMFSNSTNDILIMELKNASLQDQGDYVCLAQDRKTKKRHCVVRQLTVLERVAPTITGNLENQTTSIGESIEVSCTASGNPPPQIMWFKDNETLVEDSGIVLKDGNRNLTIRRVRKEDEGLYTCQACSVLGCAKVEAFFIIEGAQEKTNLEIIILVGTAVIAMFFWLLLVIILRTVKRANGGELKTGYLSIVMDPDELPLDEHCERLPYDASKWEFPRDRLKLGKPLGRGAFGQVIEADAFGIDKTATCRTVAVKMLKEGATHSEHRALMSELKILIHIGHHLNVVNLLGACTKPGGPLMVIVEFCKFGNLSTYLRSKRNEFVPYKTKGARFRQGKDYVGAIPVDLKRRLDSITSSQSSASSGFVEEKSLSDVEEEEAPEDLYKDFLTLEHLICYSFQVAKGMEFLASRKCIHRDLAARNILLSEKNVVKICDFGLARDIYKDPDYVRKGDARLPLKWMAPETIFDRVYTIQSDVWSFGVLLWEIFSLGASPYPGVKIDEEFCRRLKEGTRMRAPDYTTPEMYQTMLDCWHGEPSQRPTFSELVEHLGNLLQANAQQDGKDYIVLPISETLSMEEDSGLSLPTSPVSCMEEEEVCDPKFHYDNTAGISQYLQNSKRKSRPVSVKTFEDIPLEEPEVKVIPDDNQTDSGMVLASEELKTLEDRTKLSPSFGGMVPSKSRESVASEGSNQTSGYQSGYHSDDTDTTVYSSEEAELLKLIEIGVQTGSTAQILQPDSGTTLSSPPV
Chain of RAC-alpha serine/threonine-protein kinase (P31749 whole entry): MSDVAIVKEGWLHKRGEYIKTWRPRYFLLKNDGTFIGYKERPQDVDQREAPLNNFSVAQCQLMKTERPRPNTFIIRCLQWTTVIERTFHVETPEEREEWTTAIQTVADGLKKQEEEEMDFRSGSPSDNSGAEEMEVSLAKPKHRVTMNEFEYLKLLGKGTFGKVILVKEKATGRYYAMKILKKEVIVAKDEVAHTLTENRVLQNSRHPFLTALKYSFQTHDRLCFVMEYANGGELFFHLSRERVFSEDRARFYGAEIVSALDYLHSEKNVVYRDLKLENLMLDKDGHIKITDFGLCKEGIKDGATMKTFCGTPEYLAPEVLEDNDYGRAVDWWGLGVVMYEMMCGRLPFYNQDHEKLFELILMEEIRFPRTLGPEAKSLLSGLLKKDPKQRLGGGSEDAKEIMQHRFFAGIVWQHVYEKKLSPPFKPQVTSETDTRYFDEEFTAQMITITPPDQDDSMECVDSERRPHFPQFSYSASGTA

IC50 [1]: 7.23 µM
SMILES: Cc1cc(Nc2nc(Nc3ccccc3S(=O)(=O)C(C)C)c3cccnc3n2)c(OC(C)C)cc1C1CCNCC1

AUC [2]: 0.406 µM·h
IC50 [1]: 2.22 µM
solubility [3]: 8.1 µM (≈ 4.56 µg/mL)
Cmax [4]: 51 nM
microsomal CLint [5]: 22 µL/min/mg
log(permeability) [6]: -5.7
clearance [7]: 40 mL/min/kg
microsomal CLint [8]: 14 µL/min/mg
Vd [9]: 7.3 L/kg
microsomal CLint [10]: 15 µL/min/mg
IC50 [11]: 4.6 µM
bioavailability [12]: 3%
SMILES: Cc1cc(Nc2nc(Nc3ccccc3S(=O)(=O)C(C)C)c3cc[nH]c3n2)c(OC(C)C)cc1C1CCNCC1

IC50 [1]: 4.5 µM
SMILES: Cc1cc(Nc2nc(Nc3ccccc3S(=O)(=O)C(C)C)c3c(N)n[nH]c3n2)c(OC(C)C)cc1C1CCN(C)CC1

IC50 [1]: 3.94 µM
SMILES: COc1ccc2nc(Nc3cc(C)c(C4CCN(C)CC4)cc3OC(C)C)nc(Nc3ccccc3S(=O)(=O)C(C)C)c2c1

IC50 [1]: 2.6 µM
SMILES: Cc1cc(Nc2cc(Nc3ccccc3S(=O)(=O)C(C)C)nc3[nH]ccc23)c(OC(C)C)cc1C1CCN(C)CC1

IC50 [1]: 3.24 µM
SMILES: Cc1cc(Nc2nc(Nc3ccccc3S(=O)(=O)C(C)C)c3ccccc3n2)c(OC(C)C)cc1C1CCN(C)CC1

AUC [2]: 5.98 µM·h
IC50 [1]: 3.42 µM
AUC [13]: 7.19 µM·h
solubility [3]: 10.4 µM (≈ 6 µg/mL)
Cmax [4]: 425 nM
microsomal CLint [5]: 25 µL/min/mg
log(permeability) [6]: < -3.3
bioavailability [14]: 35%
clearance [7]: 58 mL/min/kg
microsomal CLint [8]: 34 µL/min/mg
Vd [15]: 13.7 L/kg
Vd [9]: 10.8 L/kg
clearance [16]: 15 mL/min/kg
microsomal CLint [10]: 62 µL/min/mg
IC50 [11]: 4.5 µM
Cmax [18]: 291 nM
bioavailability [12]: 59%
SMILES: Cc1cc(Nc2nc(Nc3ccccc3S(=O)(=O)C(C)C)c3cc[nH]c3n2)c(OC(C)C)cc1C1CCN(C)CC1
IC50 [17]: 1.7 µM

IC50 [1]: 6.22 µM
SMILES: Cc1cc(Nc2nc(Nc3ccccc3S(=O)(=O)C(C)C)c3cn[nH]c3n2)c(OC(C)C)cc1C1CCNCC1

IC50 [19]: > 10 µM
IC50 [20]: 7.8 µM
AUC [2]: 4.9 µM·h
IC50 [1]: 2.51 µM
IC50 [22]: 7.6 µM
AUC [13]: 3.07 µM·h
solubility [3]: 114 µM (≈ 67.5 µg/mL)
IC50 [23]: > 10 µM
IC50 [24]: > 10 µM
Cmax [4]: 429 nM
IC50 [25]: 0.47 µM
IC50 [26]: 3.6 µM
microsomal CLint [5]: 19 µL/min/mg
IC50 [27]: > 10 µM
IC50 [29]: 2.9 µM
IC50 [30]: 0.96 µM
IC50 [31]: 0.004 µM
log(permeability) [6]: -4.9
bioavailability [14]: 35%
IC50 [32]: 9.7 µM
IC50 [33]: 8.1 µM
clearance [7]: 71 mL/min/kg
microsomal CLint [8]: 33 µL/min/mg
Vd [15]: 19.4 L/kg
Vd [9]: 12.1 L/kg
IC50 [34]: 7.4 µM
IC50 [36]: 0.92 µM
IC50 [37]: 1.4 µM
clearance [16]: 32 mL/min/kg
IC50 [38]: > 10 µM
IC50 [39]: 0.01 µM
IC50 [40]: > 10 µM
IC50 [41]: > 10 µM
IC50 [43]: 0.03 µM
microsomal CLint [10]: 13 µL/min/mg
IC50 [44]: > 10 µM
IC50 [45]: 4.3 µM
IC50 [46]: 9.4 µM
IC50 [47]: 3.9 µM
IC50 [48]: > 10 µM
IC50 [11]: > 25 µM
IC50 [49]: > 10 µM
IC50 [50]: > 10 µM
Cmax [18]: 151 nM
IC50 [51]: 4.3 µM
bioavailability [12]: 58%
SMILES: Cc1cc(Nc2nc(Nc3ccccc3S(=O)(=O)C(C)C)c3c(C)[nH]nc3n2)c(OC(C)C)cc1C1CCN(C)CC1
T/C [21]: -54%
Activity [28]: Dose-dependent effect
T/C [35]: 37%
IC50 [17]: 20.8 µM
Activity [42]: Non-Toxic

IC50 [1]: 4.91 µM
IC50 [31]: > 25 µM
SMILES: Cc1cc(Nc2cc(Nc3ccccc3S(=O)(=O)C(C)C)c3cc[nH]c3n2)c(OC(C)C)cc1C1CCN(C)CC1

IC50 [1]: 5.41 µM
SMILES: Cc1cc2c(Nc3ccccc3S(=O)(=O)C(C)C)nc(Nc3cc(C)c(C4CCNCC4)cc3OC(C)C)nc2[nH]1

IC50 [1]: 5.54 µM
SMILES: Cc1cc(Nc2nc(Nc3ccccc3S(=O)(=O)C(C)C)c3c(C)n[nH]c3n2)c(OC(C)C)cc1C1CCNCC1

IC50 [1]: 2.03 µM
SMILES: Cc1cc(NC2=NC3NCCCC3C(Nc3ccccc3S(=O)(=O)C(C)C)=N2)c(OC(C)C)cc1C1CCNCC1 (configuration not stated)

IC50 [1]: > 10 µM
SMILES: Cc1cc(Nc2nc(Nc3ccccc3S(=O)(=O)C(C)C)c3[nH]nnc3n2)c(OC(C)C)cc1C1CCN(C)CC1

IC50 [1]: 5.12 µM
solubility [3]: > 175 µM
microsomal CLint [5]: 32 µL/min/mg
log(permeability) [6]: -4.1
microsomal CLint [8]: 30 µL/min/mg
microsomal CLint [10]: 37 µL/min/mg
IC50 [11]: 3.3 µM
SMILES: Cc1cc(Nc2nc(Nc3ccccc3S(=O)(=O)C(C)C)c3cn[nH]c3n2)c(OC(C)C)cc1C1CCN(C)CC1
IC50 [17]: 1 µM

IC50 [1]: 5.73 µM
SMILES: Cc1cc2c(Nc3ccccc3S(=O)(=O)C(C)C)nc(Nc3cc(C)c(C4CCN(C)CC4)cc3OC(C)C)nc2[nH]1
